# Marks after values point to notes of the source that are not given here.
# Columns and labels:
# Type in all cases: in vivo, SCID mice
# s.c. BxPC3 tumors = experiment: Protocol 146: ^212Pb-DOTAM distribution after PRIT, 5 min to 48 h
# Method: Protocol 146 was designed to provide in vivo ^212Pb-DOTAM distribution data after PRIT for estimations of the absorbed radioactive dose to tumor and normal tissues, in SCID mice carrying s.c. BxPC3 tumors. The quenching of ^212Pb-DOTAM was performed using Ca (see example 34).
# Pretargeting was performed by injection of CEA-DOTAM BsAb, followed 7 days later by the CA. After 24 hours, the ^212Pb-DOTAM was administered. Groups of mice were sacrificed at multiple time points from 5 minutes to 48 hours after the radioactive injection, and blood and organs harvested for radioactive measurement. […] Absorbed doses were finally calculated through established methods using the resulting time-activity curves. […]
# Mice in group E and F were individually housed (i.e. one mouse per cage) in grilled-floor metabolic cages. Urine and feces were collected from each cage 2, 6, and 24 hours after the radioactive injection, and the individual samples subsequently measured for radioactivity. […]
# Blood/serum was collected from all mice through retro-orbital bleeding before termination. After euthanasia, the following additional organs and tissues were harvested for radioactivity measurement and calculation of % ID/g: bladder, uterus, small intestine, colon, spleen, pancreas, kidneys, stomach, liver, lung, heart, brain, femoral bone, skin, muscle, abdominal fat, tail, and tumor.
# BxPC3 tumors [1] = experiment: Protocol 95: TCMC saturation, CA-to-antibody ratio, ^212Pb activity; settings: no CA, 24 h; for tumor accumulation: ±SD, n=3
# Description: In this study, nine different clearing agents based on dextran-500 were compared in terms of inhibition of ^212Pb-DOTAM association to tumors. More specifically, the experiment assessed the impact on tumor-associated radioactivity from i) TCMC saturation, ii) clearing agent-to-antibody ratio, and iii) production/purification method. In addition, the tumor uptake was compared after injection of 10 or 30 μCi of ^212Pb-DOTAM, without pretargeting or CA, to assess whether radioactivity saturation of the tumor was achieved already at the lower dose.
# PRIT-0165 (100 μg per 100 μL) was administered i.v., followed three days later by dextran-500-based clearing reagents (10-170 μg per 100 μL) with varying TCMC substitution (10-100%). Groups J and K received PBS instead of clearing agent. Two hours later, mice were injected i.v. with 100 μL of the respective ^212Pb-DOTAM solutions (10 or 30 μCi).
# Mice were sacrificed and necropsied 24 hours after injection of ^212Pb-DOTAM. Blood, bladder, spleen, kidneys, liver, lung, muscle, tail, and tumors were collected, weighed and measured for radioactivity content, and the % ID/g subsequently calculated.
# LS174T tumors = experiment: Protocol 93b: efficacy and biodistribution of CEA-PRIT
# Method: (§1) The bispecific antibodies were compared side-by-side in single- and double-cycle treatment regimens.
# (§2) Groups A-G represent the treated mice that were followed up for assessment of efficacy, whereas groups H-L comprise mice that were sacrificed for biodistribution purposes 24 h after their last ^212Pb-DOTAM injection.
# (§3) Solid xenografts were established by subcutaneous injection of cells in RPMI (BxPC3) or DMEM (LS174T) media mixed 1:1 with Corning® Matrigel® basement membrane matrix (growth factor reduced; cat No. 354230).
# For protocol 93b, mice (age 9 weeks) were injected s.c. into the right flank with 1×10^6 LS174T cells (passage 26) in 100 μl DMEM/Matrigel. Three days after tumor cell injection, mice were sorted into experimental groups with an average tumor volume of 150 mm^3.
# (§4) To minimize re-ingestion of radioactive urine/feces after treatment cycle 1, cages were changed 4 hours after ^212Pb-DOTAM administration, and then again at 24 h p.i. For cycle 2, mice were placed in cages with grilled floors for 4 hours after ^212Pb-DOTAM administration, before being transferred to new cages with standard bedding. All cages were then changed at 24 h p.i., as after cycle 1. The tumor development in the mice was followed through repeated calipering three times a week. If needed, additional calipering was performed in the gaps between scheduled measurements. The body weight of the animals was measured repeatedly in the same fashion. Mice whose tumor volume reached 3000 mm^3 were immediately euthanized. Other factors taken into account for euthanasia for ethical reasons were body weight loss, tumor status (e.g. ulceration) and general appearance of the animal. Wet food was provided to all animals starting from five days after the radioactive injection if mandated by an acute loss of body weight (collective or individual) due to radiation-induced toxicity, until all individuals had recovered sufficiently.
# (§5) The following organs and tissues were harvested from groups A-G at the time of euthanasia: bladder, ovaries, liver, spleen, kidneys, femur (including bone marrow), colon, jejunum, stomach, and tumor. Unexpected or abnormal conditions were noted and photographed. Tissues were immediately put in 10% neutral buffered formalin (4° C.) and then transferred to PBS (4° C.) after 5 days. The formalin-fixed samples were then shipped to Roche Pharma Research and Early Development, Roche Innovation Center Basel, for further processing and analysis.
# (§6) Mice in groups H, J, and L were sacrificed and necropsied 24 hours after their first and only injection of ^212Pb-DOTAM; groups I and K were sacrificed and necropsied 24 hours after their second ^212Pb-DOTAM injection. The following organs and tissues were harvested: blood, bladder, small intestine, colon, spleen, pancreas, kidneys, liver, lung, heart, femoral bone, muscle, tail, and tumor. Collected samples were weighed and measured for radioactivity, and the percent injected dose per gram of tissue (% ID/g) subsequently calculated, including corrections for decay and background.
# BxPC3 tumors [2] = experiment: Protocol 93a: efficacy and biodistribution of CEA-PRIT
# Method: as §1, §2, §3
# For protocol 93a, mice (age 7 weeks) were injected s.c. into the right flank with 5×10^6 BxPC3 cells (passage 33) in 100 μl RPMI/Matrigel. Twelve days after tumor cell injection, mice were sorted into experimental groups with an average tumor volume of 235 mm^3.
# as §4, §5, §6
# [3] = labelled group 30 + 30 μCi 212Pb-DOTAM, multiple test level = 0.00238
smiles,measurement,setting,value
NC(=O)CN1CCN(CC(N)=O)CCN(CC(N)=O)CCN(CC(N)=O)CC1.[212Pb+2] [^212Pb-DOTAM],accumulation of radioactivity in tumor,"s.c. BxPC3 tumors; 5 minutes after injection, pretargeted by CEA-DOTAM BsAb, CA",17 % ID/g
same,accumulation of radioactivity in tumor,"s.c. BxPC3 tumors; by 6 hours p.i., remaining for at least 48 hours",over 40%
same,tumor-to-blood ratio,BxPC3 tumors [1]; 10 μCi ^212Pb-DOTAM,2.26±0.25
same,tumor accumulation,BxPC3 tumors [1]; 10 μCi ^212Pb-DOTAM,72.38±10.83 % ID/g
same,tumor-to-blood ratio,BxPC3 tumors [1]; 30 μCi ^212Pb-DOTAM,3.20±0.20
same,tumor accumulation,BxPC3 tumors [1]; 30 μCi ^212Pb-DOTAM,107.74±14.71 % ID/g
same,TGI,"LS174T tumors; day 22, 30+30 μCi, compared with PBS",64.7%
same,"Pairwise Log-Rank Test, survival, p vs PRIT-0175 30 + 30 μCi",LS174T tumors; [3],0.0090*
same,"Pairwise Log-Rank Test, survival, p vs PRIT-0213 30 + 30 μCi",LS174T tumors; [3],<0.0001*
same,"Pairwise Log-Rank Test, survival, p vs PRIT-0213 30 μCi",LS174T tumors; [3],<.0001*
same,"Pairwise Log-Rank Test, survival, p vs PRIT-0214 30 + 30 μCi",LS174T tumors; [3],<.0001*
same,"Pairwise Log-Rank Test, survival, p vs PRIT-0214 30 μCi",LS174T tumors; [3],0.0091*
same,"Pairwise Log-Rank Test, survival, p vs Vehicle (PBS)",LS174T tumors; [3],0.0034*
same,"Pairwise Wilcoxon Test, survival, p vs PRIT-0175 30 + 30 μCi",LS174T tumors; [3],0.0417*
same,"Pairwise Wilcoxon Test, survival, p vs PRIT-0213 30 + 30 μCi",LS174T tumors; [3],0.0002*
same,"Pairwise Wilcoxon Test, survival, p vs PRIT-0213 30 μCi",LS174T tumors; [3],0.0002*
same,"Pairwise Wilcoxon Test, survival, p vs PRIT-0214 30 + 30 μCi",LS174T tumors; [3],0.0002*
same,"Pairwise Wilcoxon Test, survival, p vs PRIT-0214 30 μCi",LS174T tumors; [3],0.0160*
same,"Pairwise Wilcoxon Test, survival, p vs Vehicle (PBS)",LS174T tumors; [3],0.0111*
same,tumor growth inhibition (TGI),"BxPC3 tumors [2]; day 47, 30+30 μCi, compared with PBS",15.8%
same,"Pairwise Log-Rank Test, survival, p vs PRIT-0175 30 + 30 μCi",BxPC3 tumors [2]; [3],0.0032*
same,"Pairwise Log-Rank Test, survival, p vs PRIT-0213 30 + 10 μCi",BxPC3 tumors [2]; [3],0.0001*
same,"Pairwise Log-Rank Test, survival, p vs PRIT-0213 30 + 30 μCi",BxPC3 tumors [2]; [3],0.8474
same,"Pairwise Log-Rank Test, survival, p vs PRIT-0214 30 + 10 μCi",BxPC3 tumors [2]; [3],<.0001*
same,"Pairwise Log-Rank Test, survival, p vs PRIT-0214 30 + 30 μCi",BxPC3 tumors [2]; [3],0.0685
same,"Pairwise Log-Rank Test, survival, p vs Vehicle (PBS)",BxPC3 tumors [2]; [3],0.5271
same,"Pairwise Wilcoxon Test, survival, p vs PRIT-0175 30 + 30 μCi",BxPC3 tumors [2]; [3],0.0042*
same,"Pairwise Wilcoxon Test, survival, p vs PRIT-0213 30 + 10 μCi",BxPC3 tumors [2]; [3],0.0004*
same,"Pairwise Wilcoxon Test, survival, p vs PRIT-0213 30 + 30 μCi",BxPC3 tumors [2]; [3],0.8704
same,"Pairwise Wilcoxon Test, survival, p vs PRIT-0214 30 + 10 μCi",BxPC3 tumors [2]; [3],0.0002*
same,"Pairwise Wilcoxon Test, survival, p vs PRIT-0214 30 + 30 μCi",BxPC3 tumors [2]; [3],0.0827
same,"Pairwise Wilcoxon Test, survival, p vs Vehicle (PBS)",BxPC3 tumors [2]; [3],0.1439

# Source: US20220031871A1, “ANTIBODIES FOR CHELATED RADIONUCLIDES AND CLEARING AGENTS” (Hoffmann-La Roche Inc., priority 2018, published 2022)
